Reference: patent publication US5034517A, “Process for producing 2,6-dideoxy-2-fluoro-L-talopyranose” (priority 1986, dated 1991)
Where two headings read alike, the source gives them in different places.

Key:
[1] = tested on: Salmonella paratyphi 1015; assay: MIC by standard serial dilution method; format: cell-based; settings: Salmonella enterica
Source text: (§1) Minimum inhibitory concentrations (MIC., mcg/ml) of the new compounds of formulae (h) and (i) against the growth of some species of bacteria have been determined according to a standard serial dilution method.

[2] = tested on: Corynebacterium bovis 1810; assay: MIC by standard serial dilution method; format: cell-based
Source text: as §1

some species of bacteria = assay: Antibacterial activity; format: cell-based; settings: for antibacterial activity: in words; for antibacterial activity compared with phenol: some species of bacteria
[3] = in vivo; cited from earlier work
[4] = tested on: Micrococcus luteus ATCC 9341; assay: MIC by standard serial dilution method; format: cell-based; settings: ATCC9341; Micrococcus luteus ATCC 9341 (MS-1)
Source text: as §1

[5] = Stability of glycoside linkage against acid hydrolysis (Test 2); format: physicochemical; settings: for acid hydrolysis: 60° C.; for acid hydrolysis, TLC result: 61°-62° C.; for stability of glycoside linkage against hydrolysis by acid: in words, no conditions
Description: Daunomycin (1 mg) was dissolved in a mixture of (0.1 ml) of 0.2N*HCl-80% CH3 CN-H2 O (*the concentration of HCl being 0.2N in the whole mixture) and the solution was heated in oil bath at 61°-62° C. for 30 minutes to cause the hydrolysis. […] The reaction solution was allowed to stand at room temperature to deposit daunomycinone as red crystals.
FTDM (0.7 mg) was suspended in a mixture (0.1 ml) of 0.2N HCl-80% CH3 CN-H2 O and suspension was stirred in an oil bath at 61°-62° C. for 30 minutes.

Leukemia L-1210 cells = assay: Antitumor activity on leukemia in CDF1 mice caused by Leukemia L-1210 cells (Test 1); settings: for sign of toxicity: 2.5-5 mg/kg/day, in words
Description: Antitumor activity on Leukemia in CDF1 mice caused by Leukemia L-1210 cells
In this test, Compounds of formula (m) were assessed in comparison with daunomycin and adriamycin on their tumor inhibitory activity against leukemia in mice Thus, CDF1 mice were intraperitoneally transplanted with cells of Leukemia L-1210 (1×10^5 cells/mouse). From 24 hours after i.p. transplantation of L-1210 cells, each compound to be tested was administered intraperitoneally for 9 consecutive days at once per day. Observation was made for 60 days where survival days of each mouse tested were recorded, and percentage increase in life-span of the treated mice, in comparison with control test wherein mice were treated only with the administration of physiological saline, was calculated as T/C %, where T is the mean survival days of the treated animals and C is the mean survival days of the untreated control animals.

experimental tumors [6] = settings: various kinds of tumors; cited from earlier work
Leukemia P 388 = settings: cited from earlier work
[7] = patients; cited from earlier work
Leukemia L-1210 = settings: 25 mg/kg, single dose per day, intraperitoneally for 9 days; cited from earlier work
experimental tumors [8] = assay: Animal tests on experimental tumors; format: in vivo; settings: in words
[9] = 0.2N HCl-80% CH3 CN-H2 O, 30 minutes
[10] = 0.15 mg/kg/day, i.p., once per day for 9 days, 60 days observation
[11] = 0.3 mg/kg/day, i.p., once per day for 9 days, 60 days observation
[12] = 0.6 mg/kg/day, i.p., once per day for 9 days, 60 days observation
[13] = 1.25 mg/kg/day, i.p., once per day for 9 days, 60 days observation
[14] = 2.5 mg/kg/day, i.p., once per day for 9 days, 60 days observation
[15] = 5 mg/kg/day, i.p., once per day for 9 days, 60 days observation

In the case of `C[C@@H]1OC(O)[C@H](F)[C@H](O)[C@@H]1O` (stereo partly drawn) [Compound of formula (i), 2,6-dideoxy-2-fluoro-α,β-L-talopyranose], the MIC [1] is reported as 100 µg/mL, the MIC [2] is reported as 100 µg/mL and the antibacterial activity (some species of bacteria) is reported as “shows antibacterial activity”. For the same compound, the “antibacterial activity compared with phenol” value (some species of bacteria) was “higher antibacterial activity against some species of bacteria than that of phenol”.

In the case of `COc1cccc2c1C(=O)c1c(O)c3c(c(O)c1C2=O)C[C@@](O)(C(C)=O)C[C@@H]3O` [daunomycinone], the “cardiac toxicity compared with daunomycin or adriamycin” value [3] is given as “higher cardiac toxicity than the daunomycin or adriamycin itself”.

For `CO[C@@H]1O[C@@H](C)[C@@H](O)[C@@H](O)[C@H]1F` [Compound of formula (h), methyl 2,6-dideoxy-2-fluoro-α-L-talopyranoside], the MIC [1] was 100 µg/mL, the MIC [4] was 100 µg/mL and the “antibacterial activity compared with phenol” value (some species of bacteria) was “higher antibacterial activity against some species of bacteria than that of phenol”.

For `COc1cccc2c1C(=O)c1c(O)c3c(c(O)c1C2=O)C[C@@](O)(C(C)=O)C[C@@H]3O[C@H]1C[C@H](N)[C@H](O)[C@H](C)O1` [Daunomycin, reference compound], the acid hydrolysis ([5]; 0.2N HCl in acetonitrile-water (4:1), 30 minutes) was “completely decomposed”, the “acid hydrolysis, TLC result” value [5, 9] was “disappearance of the spot of daunomycin” and the “% Increase in life-span (T/C)” value (Leukemia L-1210 cells; [10]) was 132%. The “% Increase in life-span (T/C)” value (Leukemia L-1210 cells; [11]) was 112%, the “% Increase in life-span (T/C)” value (Leukemia L-1210 cells; [12]) was 145% and the “% Increase in life-span (T/C)” value (Leukemia L-1210 cells; [13]) was 158%. For the same compound, the “% Increase in life-span (T/C)” value (Leukemia L-1210 cells; [14]) was 171%, the “% Increase in life-span (T/C)” value (Leukemia L-1210 cells; [15]) was 138% and the antitumor activity (experimental tumors [6]) was “fairly high antitumor activity against various kinds of tumors”.

In the case of `COc1cccc2c1C(=O)c1c(O)c3c(c(O)c1C2=O)C[C@@](O)(C(C)=O)C[C@@H]3O[C@@H]1O[C@@H](C)[C@@H](OC(C)=O)[C@@H](OC(C)=O)[C@H]1I` [Compound NSC 327,472, 7-O-(3,4-di-O-acetyl-2,6-dideoxy-2-iodo-α-L-talohexopyranosyl)daunomycinone], the “increase (%) of survival days” value (Leukemia P 388; 12.5 mg/kg to 25 mg/kg) is listed as 172% and the “increase (%) of survival days” value (Leukemia P 388; 150 mg/kg) is listed as 162%.

For `COc1cccc2c1C(=O)c1c(O)c3c(c(O)c1C2=O)C[C@@](O)(C(=O)CO)C[C@@H]3O` [adriamycinone], the “cardiac toxicity compared with daunomycin or adriamycin” value [3] is listed as “higher cardiac toxicity than the daunomycin or adriamycin itself”.

For `COc1cccc2c1C(=O)c1c(O)c3c(c(O)c1C2=O)C[C@@](O)(C(=O)CO)C[C@@H]3O[C@H]1C[C@H](N)[C@H](O)[C@H](C)O1` [Adriamycin, reference compound], the cardiac toxicity [7] is listed as “cardiac toxicity”, the “decrease in the number of leukocytes” value [7] is listed as “decrease in the number of leukocytes” and the “falling-off of the hair” value [7] is listed as “falling-off of the hair”. For the same compound, the “% Increase in life-span (T/C)” value (Leukemia L-1210 cells; [10]) was 123%, the “% Increase in life-span (T/C)” value (Leukemia L-1210 cells; [11]) was 136% and the “% Increase in life-span (T/C)” value (Leukemia L-1210 cells; [12]) was 142%. The “% Increase in life-span (T/C)” value (Leukemia L-1210 cells; [13]) was 222%, the “% Increase in life-span (T/C)” value (Leukemia L-1210 cells; [14]) was 228% and the “% Increase in life-span (T/C)” value (Leukemia L-1210 cells; [15]) was 191%. For the same compound, the sign of toxicity (Leukemia L-1210 cells) was “appearance of toxicity” and the antitumor activity (experimental tumors [6]) was “fairly high antitumor activity against various kinds of tumors”.

In the case of `COc1cccc2c1C(=O)c1c(O)c3c(c(O)c1C2=O)C[C@@](O)(C(C)=O)C[C@@H]3O[C@@H]1O[C@@H](C)[C@H](OC(C)=O)[C@@H](OC(C)=O)[C@H]1I` [Compound NSC 331,962, 7-O-(3,4-di-O-acetyl-2,6-dideoxy-2-iodo-α-L-manno-hexopyranosyl)daunomycinone], the “increase (in %) of survival days (T/C, %)” value (Leukemia P 388; 50 mg/kg) is given as 247% and the “increase (in %) of survival days (T/C, %)” value (Leukemia L-1210) is given as 196%.

With `COc1cccc2c1C(=O)c1c(O)c3c(c(O)c1C2=O)C[C@@](O)(C(C)=O)C[C@@H]3O[C@@H]1O[C@@H](C)[C@@H](O)[C@@H](O)[C@H]1F` [Compound of formula (k), 7-O-(2,6-dideoxy-2-fluoro-α-L-talopyranosyl)daunomycinone] the antitumor activity (experimental tumors [8]) was “excellent antitumor activities”, the toxicity (experimental tumors [8]) was “low toxicities” and the “acid hydrolysis, TLC result” value [5, 9] was “presence of the spot of FTDM only”. For the same compound, the “acid hydrolysis, TLC result” value ([5]; 0.2N HCl-80% CH3 CN-H2 O, further 3 hours) was “the spot of FTDM only”, the acid hydrolysis ([5]; 1N HCl in acetonitrile-water (4:1), 8 hours) was “remains substantially as it is, without being decomposed” and the “acid hydrolysis, TLC result” value ([5]; 1N HCl overall, 8 hours) was “a spot of a trace amount of daumonycinone appeared, but most of FTDM was remaining at it was”. The “stability of glycoside linkage against hydrolysis by acid” value [5] was “high stability against hydrolysis by acid”, the sign of toxicity (Leukemia L-1210 cells) was “no sign of toxicity” and the “% Increase in life-span (T/C)” value (Leukemia L-1210 cells; ip, 0.15 mg/kg) was 105%. The “% Increase in life-span (T/C)” value (Leukemia L-1210 cells; ip, 0.3 mg/kg) was 105%, the “% Increase in life-span (T/C)” value (Leukemia L-1210 cells; ip, 0.6 mg/kg) was 125% and the “% Increase in life-span (T/C)” value (Leukemia L-1210 cells; ip, 1.25 mg/kg) was 171%. For the same compound, the “% Increase in life-span (T/C)” value (Leukemia L-1210 cells; ip, 2.5 mg/kg) was 217%, the “% Increase in life-span (T/C)” value (Leukemia L-1210 cells; ip, 5 mg/kg) was 184% and the antibacterial activity (some species of bacteria) was “high antibacterial activities”.

For `COc1cccc2c1C(=O)c1c(O)c3c(c(O)c1C2=O)C[C@@](O)(C(=O)CO)C[C@@H]3O[C@@H]1O[C@@H](C)[C@@H](O)[C@@H](O)[C@H]1F` [Compound of formula (l), 7-O-(2,6-dideoxy-2-fluoro-α-L-talopyranosyl)adriamycinone], the antitumor activity (experimental tumors [8]) was “excellent antitumor activities”, the toxicity (experimental tumors [8]) was “low toxicities” and the “stability of glycoside linkage against hydrolysis by acid” value [5] was “high stability against hydrolysis by acid”. For the same compound, the sign of toxicity (Leukemia L-1210 cells) was “no sign of toxicity”, the “% Increase in life-span (T/C)” value (Leukemia L-1210 cells; ip, 0.15 mg/kg) was 127% and the “% Increase in life-span (T/C)” value (Leukemia L-1210 cells; ip, 0.3 mg/kg) was 182%. The “% Increase in life-span (T/C)” value (Leukemia L-1210 cells; ip, 0.6 mg/kg) was 185%, the “% Increase in life-span (T/C)” value (Leukemia L-1210 cells; ip, 1.25 mg/kg) was 275% and the “% Increase in life-span (T/C)” value (Leukemia L-1210 cells; ip, 2.5 mg/kg) was over 352%. For the same compound, the “% Increase in life-span (T/C)” value (Leukemia L-1210 cells; ip, 5 mg/kg) was over 740% and the antibacterial activity (some species of bacteria) was “high antibacterial activities”.
